{"source": "patent US20240301408A1", "about": "“MICRORNA 195 COMPOSITIONS AND METHODS FOR TREATING COGNITIVE IMPAIRMENT” (UNITED STATES GOVERNMENT AS REPRESENTED BY THE DEPARTMENT …, priority 2021, published 2024)", "key": {"[1]": {"tested_on": "lysosomes of ApoE4+/+ astrocytes", "test": "lysosome size (Lysotracker, confocal) in iPSC-derived astrocytes", "format": "cell-based, human", "settings": "control 36.5 μm^2", "procedure": "(§1) Mouse Neuronal and human iPSC culture. Primary cortical neurons were cultured (Zhu L et al., Proc Natl Acad Sci USA 2015, and Zhu L et al., J Biol Chem 2013) before being fixed and stained for confocal microscopy analysis (Zeiss LSM) (Berg I et al., Nat Protoc 2010). In some conditions, bovine serum albumin (BSA) or receptor-associated protein (RAP) was included in the cultured media (N=3/group). Alternatively, cultured neurons were transfected with adeno-associated virus 2 (AAV2)-containing miR-195-5p or miR-374 or scramble controls for 5 days before subjected to analysis. The ApoE4^+/+ and ApoE3^+/+ iPSCs were differentiated into neural progenitor cells (NPCs) by dual SMAD inhibition followed by neural rosette selection and forebrain-specific patterning by 20 ng/ml FGF2 exposure (Bowles K R et al., PloS one 2019, and Tcw J et al., Stem cell reports 2017). These NPCs were purified by MACS for CD271^−/CD133^+ (Bowles K R et al., PloS one 2019) and differentiated to cortical neurons (Bardy C et al., Proc Natl Acad Sci USA 2015, and Paquet D et al., Nature 2016) and a homogeneous population of astrocytes (Tcw J et al., Stem cell reports 2017, and Shaltouki A et al., Stem Cells 2013) before subjected to viral transfection and confocal microscopy analysis. […]"}, "[2]": {"tested_on": "lysosomes of synj1+/+ and synj1-/- neurons", "test": "lysosome size in mouse synj1+/+ and synj1-/- neurons co-cultured with ApoE4+/+ iPSC-derived astrocytes", "format": "cell-based", "procedure": "as §1"}, "BV2 cells": {"tested_on": "BV2 cells", "test": "LPS-induced gene expression (pdcd4, smad7, il10a) in BV2 microglia with miR-195-5p over-expression", "format": "cell-based", "procedure": "For example, LPS (at 0.2 μg/ml) treatment for overnight in BV2 cells leads to increased expression of pdcd4 and smad7 (FIG. 13A) and reduced expression of il10ra (FIG. 13C). […] Over-expression of miR-195-5p also attenuates LPS-induced pro-inflammatory cytokine release (IL-6 and TNFα; FIG. 13B). […] For these experiments, purified exosomes were derived from human APOE3/3 and 4/4 iPSC-derived astrocytes w/wo miR-195 over-expression detected by an exosome marker, ALIX. Fluorescence labeled exosomes were taken up by IBA1+ microglia cells.\nOver-expression of miR-195-5p in microglia inhibits LPS-induced proinflammatory responses and augments anti-inflammatory responses. […] However, over-expression of miR-195-5p reduces expression levels of pdcd4 and smad7 and increases il10a expression in the presence of LPS. Over-expression of miR-195-5p also attenuates LPS-induced pro-inflammatory cytokine release (IL-6 and TNFα; FIG. 17B)."}, "pTau": {"tested_on": "pTau", "test": "pTau levels in iPSC-derived brain cell culture (AT8 staining, ELISA)", "format": "cell-based, human", "settings": "iPSC-derived neuron and astrocyte co-culture", "procedure": "as §1, with “2017).” for “2017). These NPCs were purified by MACS for CD271^−/CD133^+ (Bowles K R et al., PloS one 2019) and differentiated to cortical neurons (Bardy C et al., Proc Natl Acad Sci USA 2015, and Paquet D et al., Nature 2016) and a homogeneous population of astrocytes (Tcw J et al., Stem cell reports 2017, and Shaltouki A et al., Stem Cells 2013) before subjected to viral transfection and confocal microscopy analysis.”\nBrain and neuronal sample preparation and biochemical analysis. […] Levels of Aβ42, Aβ40, pTau, Tau and ApoE were determined using high-sensitive ELISA kits. […]"}, "synaptojanin 1 (synj1)": {"tested_on": "synaptojanin 1 (synj1)", "test": "synj1 expression in cultured mouse neurons after AAV2 miRNA over-expression (western blot, qPCR)", "format": "cell-based", "procedure": "Mouse Neuronal and human iPSC culture. Primary cortical neurons were cultured (Zhu L et al., Proc Natl Acad Sci USA 2015, and Zhu L et al., J Biol Chem 2013) before being fixed and stained for confocal microscopy analysis (Zeiss LSM) (Berg I et al., Nat Protoc 2010). In some conditions, bovine serum albumin (BSA) or receptor-associated protein (RAP) was included in the cultured media (N=3/group). Alternatively, cultured neurons were transfected with adeno-associated virus 2 (AAV2)-containing miR-195-5p or miR-374 or scramble controls for 5 days before subjected to analysis. The ApoE4^+/+ and ApoE3^+/+ iPSCs were differentiated into neural progenitor cells (NPCs) by dual SMAD inhibition followed by neural rosette selection and forebrain-specific patterning by 20 ng/ml FGF2 exposure (Bowles K R et al., PloS one 2019, and Tcw J et al., Stem cell reports 2017). These NPCs were purified by MACS for CD271^−/CD133^+ (Bowles K R et al., PloS one 2019) and differentiated to cortical neurons (Bardy C et al., Proc Natl Acad Sci USA 2015, and Paquet D et al., Nature 2016) and a homogeneous population of astrocytes (Tcw J et al., Stem cell reports 2017, and Shaltouki A et al., Stem Cells 2013) before subjected to viral transfection and confocal microscopy analysis. Alternatively, mouse cortical neurons derived from ApoE4^+/+ and ApoE3^+/+ KI mice with synj1^+/+ or synj1^−/− genotypes were co-cultured with ApoE4^+/+ and ApoE3^+/+ iPSC-derived pure astrocytes. In some experiments, cultured neurons were transfected with AAV2-containing miR-195-5p, scramble controls or miR195 inhibitors that specifically prevent miR-195-5p binding to its target mRNA before co-culturing with iPSC-derived astrocytes. Cultured iPSC-derived neurons and astrocytes were then incubated with lysotracker red for various time periods before fixation and double-stained for pTau and a nuclear marker DAPI (blue) for confocal microscopy analysis (Zeiss). N=4-5/condition.\nBrain and neuronal sample preparation and biochemical analysis. Snap-frozen mouse hemi-brains or cultured neurons were harvested in lysis buffer (Lane R F et al., The Journal of neuroscience 2010) and processed via step-wise solubilization (Lane R F et al., The Journal of neuroscience 2010, and Kawarabayashi T et al. The Journal of neuroscience 2001) followed by SDS-PAGE to determine levels of synj1, dyn1, holoAPP, and CTFs. Levels of Aβ42, Aβ40, pTau, Tau and ApoE were determined using high-sensitive ELISA kits. Some tissue was used for miRNA and RNA extraction followed by qPCR and RNA-seq analysis. Some animals underwent perfusion followed by brain tissue section for immunohistochemical staining of amyloid plaque, synj1 and pTau.\nStatistical analysis. The sample sizes of each experiment were chosen based on power calculations derived from previous similar studies which allowed the determination of group sizes needed to achieve statistically significant results. […] Levels of miR-195-5p and miR-374 were normalized to U6 and RNU6B (internal controls) while synj1 mRNA normalized to GAPDH and 18s, and then expressed as Log2fold of changes when compared to controls. Levels of synj1, dyn1, pTau, Tau, and holoAPP were normalized to β-actin levels and expressed as a percentage of the control. Absolute Aβ42, Aβ40, pTau, Tau, and ApoE concentrations were quantitatively determined by ELISA and expressed as a percentage of the control. […] Pearson correlation coefficients were calculated to determine the linear relationship between the two variables. […]"}, "[3]": {"settings": "ApoE3+/+ neurons with miR-195 over-expression"}, "[4]": {"settings": "ApoE4+/+ neurons with miR-195 over-expression"}}}
{"sequence": "UAGCAGCACAGAAAUAUUGGC (chemistry not given here) [miR-195-5p, over-expressed via AAV2-containing miR-195-5p from ABM Inc]", "values": [{"measurement": "average size of lysosomes (area)", "setting": "[1]", "result": "no significant differences"}, {"measurement": "size of lysosomes", "setting": "[2]; synj1+/+ neurons, control 101.5 μm^2", "result": 75.8, "unit": "μm^2"}, {"measurement": "size of lysosomes", "setting": "[2]; synj1-/- neurons, control 77.0 μm^2", "result": 69.7, "unit": "μm^2"}, {"measurement": "expression levels of pdcd4 and smad7", "setting": "BV2 cells; LPS overnight", "result": "dramatically reduces"}, {"measurement": "il10a expression", "setting": "BV2 cells; in the presence of LPS", "result": "increases"}, {"measurement": "pTau levels (fluorescent staining and ELISA)", "setting": "pTau", "result": "reduced"}, {"measurement": "synj1 mRNA levels", "setting": "synaptojanin 1 (synj1); [3]", "result": "−1.084±0.035", "unit": "log2FC"}, {"measurement": "synj1 protein levels", "setting": "synaptojanin 1 (synj1); [3]", "result": "70.9±21.2 % of controls"}, {"measurement": "synj1 mRNA levels", "setting": "synaptojanin 1 (synj1); [4]", "result": "−7.751±0.043", "unit": "log2FC"}, {"measurement": "synj1 protein levels", "setting": "synaptojanin 1 (synj1); [4]", "result": "48.0±9.84 % of controls"}, {"measurement": "synj1 protein levels", "setting": "synaptojanin 1 (synj1); ApoE-/- hippocampal neurons in presence of ApoE4-CM, miRNA over-expression, N=4/group", "result": "62.87±4.48 % of controls"}]}
